Among the data in US20240199546A1, “INHIBITORS OF SOLUTE CARRIER FAMILY 6A MEMBER 19 (SLC6A19) AND METHODS OF USE THEREOF” (Maze Therapeutics, Inc., priority 2022, published 2024) are IC50 values, retold here.

Where only a bound is given, the exact number is not on record here.

One test deals with T1, human SLC6A19 and TMEM27 (Homo sapiens, UniProt Q695T7).
T1 construct: expressed in transfected cells
T1 sequence (Q695T7 1-634): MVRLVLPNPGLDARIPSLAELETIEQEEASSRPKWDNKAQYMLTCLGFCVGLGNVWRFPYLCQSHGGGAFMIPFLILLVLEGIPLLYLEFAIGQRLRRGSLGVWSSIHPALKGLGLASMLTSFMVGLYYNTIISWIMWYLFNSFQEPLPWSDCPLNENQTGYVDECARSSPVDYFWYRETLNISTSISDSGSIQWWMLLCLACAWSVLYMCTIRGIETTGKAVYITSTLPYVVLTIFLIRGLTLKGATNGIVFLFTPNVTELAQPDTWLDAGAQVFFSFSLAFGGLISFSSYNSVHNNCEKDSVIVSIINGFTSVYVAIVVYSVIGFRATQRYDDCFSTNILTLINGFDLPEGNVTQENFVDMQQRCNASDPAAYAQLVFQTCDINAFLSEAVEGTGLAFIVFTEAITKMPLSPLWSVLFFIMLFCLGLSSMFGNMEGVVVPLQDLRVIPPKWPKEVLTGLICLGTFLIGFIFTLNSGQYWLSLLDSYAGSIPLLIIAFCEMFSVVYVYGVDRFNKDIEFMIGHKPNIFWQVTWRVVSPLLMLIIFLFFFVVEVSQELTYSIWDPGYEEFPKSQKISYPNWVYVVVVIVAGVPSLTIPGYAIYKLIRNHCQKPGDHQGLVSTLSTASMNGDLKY
T1 sequence (Q9HBJ8 15-222 partner): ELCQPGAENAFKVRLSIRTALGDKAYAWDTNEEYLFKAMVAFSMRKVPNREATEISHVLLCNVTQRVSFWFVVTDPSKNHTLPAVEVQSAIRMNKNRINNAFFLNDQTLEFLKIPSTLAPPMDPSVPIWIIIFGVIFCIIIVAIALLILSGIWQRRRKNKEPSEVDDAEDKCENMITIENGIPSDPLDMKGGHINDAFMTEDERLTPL
Briefly: Radiolabelled (3H) leucine uptake in CHO cells with doxycycline-inducible expression of human SLC6A19 and TMEM27 (Example B-1). The format is cell-based. The note with it: CHO cells with doxycycline-inducible expression of human SLC6A19 and TMEM27, read-out: SLC6A19_Radioligand Uptake Assay IC50. In a few lines:
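CHO cells were induced with doxycycline for 18 h at 37 °C, washed in HBSS, then exposed to compounds for 1 h: 8-point, 3-fold dilutions in duplicate, 0.5% DMSO final. Uptake measured by scintillation counting after 2 h shaking. Activity normalized with positive control as 0% and DMSO as 100%.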
As a reminder, the IC50 is the midpoint of a concentration-inhibition curve. On to `CC1(C(=O)NCc2cc3cc(Cl)c(OCc4sncc4Cl)cc3[nH]2)CC1` [Compound 325, N-((5-chloro-6-((4-chloroisothiazol-5-yl)methoxy)-1H-indol-2-yl)methyl)-1-methylcyclopropane-1-carboxamide], for which the IC50 was 3730 nM. On the same count and under the same terms, the same measure for `CC1CC(C(=O)NCc2cc3cc(Cl)c(OCc4cscn4)cc3[nH]2)C1` (stereo not drawn) [Compound 561, N-((5-chloro-6-(thiazol-4-ylmethoxy)-1H-indol-2-yl)methyl)-3-methylcyclobutane-1-carboxamide]: 570 nM. On the same count and under the same terms, the figure for `O=C(NCc1cc2cc(OC(F)(F)F)c(CCc3cocn3)cc2[nH]1)N1CCC1` [Compound 467, N-((6-(2-(oxazol-4-yl)ethyl)-5-(trifluoromethoxy)-1H-indol-2-yl)methyl)azetidine-1-carboxamide] is 145 nM. Consider `O=C(NCc1cc2cc(Cl)c(OCc3cscn3)cc2[nH]1)[C@H]1C[C@@H]1F` [Compound 544, (1R,2S)-N-((5-chloro-6-(thiazol-4-ylmethoxy)-1H-indol-2-yl)methyl)-2-fluorocyclopropane-1-carboxamide], for which the IC50 came to 119 nM. `CC1(C(=O)NCc2cc3cc(Cl)c(OCc4cnccc4F)cc3[nH]2)CC1` [Compound 356, N-((5-chloro-6-((4-fluoropyridin-3-yl)methoxy)-1H-indol-2-yl)methyl)-1-methylcyclopropane-1-carboxamide]: the IC50 was determined as 389 nM. Same read-out and setting: the same measure for `CN(Cc1cn[nH]c1)C(=O)NCc1cc2cc(Cl)c(OCc3ccon3)cc2[nH]1` [Compound 629, 1-((1H-pyrazol-4-yl)methyl)-3-((5-chloro-6-(isoxazol-3-ylmethoxy)-1H-indol-2-yl)methyl)-1-methylurea]: 1070 nM; for `COCCOCC(=O)NCc1cc2cc(Cl)c(OCc3cc(C)no3)cc2[nH]1` [Compound 299, N-((5-chloro-6-((3-methylisoxazol-5-yl)methoxy)-1H-indol-2-yl)methyl)-2-(2-methoxyethoxy)acetamide]: more than 9060 nM.

The target of a further test is T1, human SLC6A19 and TMEM27. Briefly: 13C6,15N-isoleucine uptake in CHO cells with doxycycline-inducible expression of human SLC6A19 and TMEM27, RapidFire mass spectrometry (Example B-2). Format: cell-based. As to conditions: read-out: SLC6A19_RapidFire Uptake Assay IC50. Here is the method: Assay ready vials of CHO cells with doxycycline inducible expression of human SLC6A19 and TMEM27 were thawed, plated in T175 flasks containing DMEM/F12 media, 10% FBS, 1% Penicillin-Streptomycin, 1× UltraGlutamate, 1 mM Sodium Pyruvate, Sodium Bicarbonate (7.5 mL of 7.5% solution in 500 mL media final), 5 μg/mL Blasticidin, 150 μg/mL Hygromycin B Gold, and 500 μg/mL G418, and incubated (humidified, 37° C. with 5% CO2) for 48 hours. Media was then removed, flasks were washed with 20 mL of DPBS, and 5 mL of TrypLE™ Express was added to each flask to initiate cell dissociation. After 5 minutes, 10 mL of cell culture media was added to each flask and mixed. The cell suspension was collected and centrifuged for 5 minutes at 200×g. The supernatant was removed, and the pellet was resuspended in 10 mL of cell culture media. Resuspended cells were counted using a Vi-Cell. 30 μL/well (20,000 cells/well) of cell suspension was added to Poly-D-Lysine 384-well black/clear plates. Plates were incubated (humidified, 37° C. with 5% CO2) for 24 hours. To induce expression of human SLC6A19 and TMEM27, 10 μL of assay culture media containing 4 μg/mL doxycycline was added to each well. Assay plates were then incubated (humidified, 37° C. with 5% CO2) overnight. After incubation, the media was removed, and wells were washed 3 times with 40 μL of warmed DPBS. Next, 10 μL of warmed assay buffer (137 mM NaCl, 5 mM KCl, 1 mM CaCl2), 1 mM MgCl2, 10 mM HEPES, 10 mM glucose, pH 7.2) was added to each well. 10 μL/well of test compound or positive control compound to define 0% activity (i.e., 100% inhibition), was then added into each well. All compounds were plated in a duplicate 10-point dilution series that consisted of 2-fold dilutions. The plates were incubated (humidified, 37° C. with 5% C2) with compound for 20 minutes. Afterwards, 20 μL/well of 2 mM 13C6,15N-1-isoleucine was added to each well and plates were incubated again (humidified, 37° C. with 5% C02) for another 20 minutes. Assay buffer was then removed, and plates were washed. 70 μL/well of stop solution (75% acetonitrile, 25% HPLC grade water, 250 nM 1-leucine-1-13C (RapidFire standard)) was added to each well. The plates were sealed and then placed in a −20° C. freezer for 20 minutes. The plates were thawed at room temperature for 20 minutes and then centrifuge for 20 minutes at 3000 rpm. Using an ABSciex API4000 mass spectrometer, processed samples were loaded onto the graphitic carbon SPE-column. The time for aspiration, load/wash, elution and re-equilibration time was 600, 1500, 3000 and 500 milliseconds, respectively. Peak areas were calculated using RapidFire Integrator software.
Consider `CNC(=O)COc1ccc2cc(CNC(=O)C3(C)CC3)[nH]c2c1` [Compound 162, 1-methyl-N-((6-(2-(methylamino)-2-oxoethoxy)-1H-indol-2-yl)methyl)cyclopropane-1-carboxamide], for which the IC50 is 16300 nM. Regarding `O=C(NCc1cc2ccc(OCc3cncs3)cc2[nH]1)N1CCCC1` [Compound 106, N-((6-(thiazol-5-ylmethoxy)-1H-indol-2-yl)methyl)pyrrolidine-1-carboxamide], the IC50 came out at 613 nM.

In the case of `Cc1cc(COc2cc3[nH]c(CNC(=O)C4(C)CC4)cc3cc2Cl)on1` [Compound 175, N-((5-chloro-6-((3-methylisoxazol-5-yl)methoxy)-1H-indol-2-yl)methyl)-1-methylcyclopropane-1-carboxamide], the IC50 worked out at 38 nM.

Turning to `CC1(C(=O)NCc2cc3cc(Cl)c(OCc4cccnc4)cc3[nH]2)CC1` [Compound 39, N-((5-chloro-6-(pyridin-3-ylmethoxy)-1H-indol-2-yl)methyl)-1-methylcyclopropane-1-carboxamide], the IC50 stood at 370 nM.

On to `O=C(NCc1cc2ccc(OCc3ccon3)cc2[nH]1)N1CCCC1` [Compound 104, N-((6-(isoxazol-3-ylmethoxy)-1H-indol-2-yl)methyl)pyrrolidine-1-carboxamide], for which the IC50 was found to be 452 nM. Same read-out and setting: the same measure for `Cc1c(CNC(=O)C2(C)CC2)[nH]c2cc(OCc3ccccc3)ccc12` [Compound 156, N-((6-(benzyloxy)-3-methyl-1H-indol-2-yl)methyl)-1-methylcyclopropane-1-carboxamide]: 198 nM; for `Cc1nnc(COc2ccc3cc(CNC(=O)C4(C)CC4)[nH]c3c2)s1` [Compound 165, 1-methyl-N-((6-((5-methyl-1,3,4-thiadiazol-2-yl)methoxy)-1H-indol-2-yl)methyl)cyclopropane-1-carboxamide]: 2180 nM. `CCC(=O)NCc1cc2ccc(OCc3cc(C)on3)cc2[nH]1` [Compound 47, N-((6-((5-methylisoxazol-3-yl)methoxy)-1H-indol-2-yl)methyl)propionamide]: the IC50 was 698 nM. On the same count and under the same terms, the figure for `O=C(NCc1cc2cc(Cl)c(OCc3cncs3)cc2[nH]1)N1CCCC1` [Compound 119, N-((5-chloro-6-(thiazol-5-ylmethoxy)-1H-indol-2-yl)methyl) pyrrolidine-1-carboxamide] is 485 nM.

With `CC1(C(=O)NCc2[nH]c3cc(OCc4ccccc4)ccc3c2Cl)CC1` [Compound 158, N-((6-(benzyloxy)-3-chloro-1H-indol-2-yl)methyl)-1-methylcyclopropane-1-carboxamide], the half-maximal inhibitory concentration (IC50) is 188 nM.

Regarding `Cc1cccc(COc2cc3[nH]c(CNC(=O)C4(C)CC4)cc3cc2Cl)n1` [Compound 42, N-((5-chloro-6-((6-methylpyridin-2-yl)methoxy)-1H-indol-2-yl)methyl)-1-methylcyclopropane-1-carboxamide], the IC50 was 1620 nM. The same measure, in the same setting: the figure for `CC1(C(=O)NCc2cc3ccc(OCc4nncs4)cc3[nH]2)CC1` [Compound 171, N-((6-((1,3,4-thiadiazol-2-yl)methoxy)-1H-indol-2-yl)methyl)-1-methylcyclopropane-1-carboxamide] is 1730 nM; for `Cc1nnc(COc2ccc3cc(CNC(=O)C4(C)CC4)[nH]c3c2)o1` [Compound 167, 1-methyl-N-((6-((5-methyl-1,3,4-oxadiazol-2-yl)methoxy)-1H-indol-2-yl)methyl)cyclopropane-1-carboxamide] it is 7500 nM. On the same count and under the same terms, the same measure for `CC1(C(=O)NCc2cc3cc(Cl)c(OCc4nccs4)cc3[nH]2)CC1` [Compound 40, N-((5-chloro-6-(thiazol-2-ylmethoxy)-1H-indol-2-yl)methyl)-1-methylcyclopropane-1-carboxamide]: 64 nM; for `CC1(C(=O)NCc2cc3ccc([C@@H]4C[C@H]4c4ccccc4)cc3[nH]2)CC1` (racemic) [Compound 154, trans-1-methyl-N-((6-(2-phenylcyclopropyl)-1H-indol-2-yl)methyl)cyclopropane-1-carboxamide]: 1360 nM. Still for that read-out and setting: the same measure for `Cc1cc(Oc2ccc3cc(CNC(=O)C4(C)CC4)[nH]c3c2)no1` [Compound 78, 1-methyl-N-((6-((5-methylisoxazol-3-yl)oxy)-1H-indol-2-yl)methyl)cyclopropanecarboxamide]: 5180 nM; for `CC1(C(=O)NCc2cc3ccc(OCc4ccncn4)cc3[nH]2)CC1` [Compound 53, 1-methyl-N-((6-(pyrimidin-4-ylmethoxy)-1H-indol-2-yl)methyl)cyclopropane-1-carboxamide]: 4820 nM.
